Columns and labels:
[1] = test system: E. coli 250HT23 (Class D); assay: MIC, micro-dilution in liquid medium, β-lactamine with product at 5 mg/l; format: cell-based; conditions: compound at 5 mg/l, 24 hours at 37° C.; for MIC of Piperacillin in combination with the compound: Trial 8, 250HT23 Class D; for MIC of Cefotaxime in combination with the compound: Trial 8, 250HT23 E. coli Class D
Method in brief: (§1)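 Strains were seeded into liquid-medium dilutions of β-lactamine, each supplemented with a fixed 5 mg/l of test compound, and held 24 hours at 37° C in a heating chamber. Minimal inhibitory concentration was the level at which bacterial development was wholly absent.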

[2] = test system: E. cloacae 293HT6 (Class C); assay: as above; format: cell-based; conditions: compound at 5 mg/l, 24 hours at 37° C.; for MIC of Piperacillin in combination with the compound: Trial 9, 293HT6 Class; for MIC of Cefotaxime in combination with the compound: Trial 9, 293HT6 E. cloacae Class C
Method in brief: as §1

Serratia 301HT6 = assay: as above; format: cell-based; conditions: compound at 5 mg/l; Trial 10, 301HT6 Serratia; 24 hours at 37° C.
Method in brief: as §1

E. coli 250SJ1 (Tem7) = assay: as above; format: cell-based; conditions: compound at 5 mg/l, 24 hours at 37° C.; for MIC of Cefotaxime in combination with the compound: Trial 5, 250SJ1 E. coli Tem7; for MIC of Piperacillin in combination with the compound: Trial 5, 250SJ1 Tem7
Method in brief: as §1

E. coli 250BE1 (SHV4) = assay: as above; format: cell-based; conditions: compound at 5 mg/l, 24 hours at 37° C.; for MIC of Cefotaxime in combination with the compound: Trial 7, 250BE1 E. coli SHV4; for MIC of Piperacillin in combination with the compound: Trial 7, 250BE1 SHV4
Method in brief: as §1

[3] = test system: S. aureus 011GO66 (PeniR); assay: as above; format: cell-based; conditions: compound at 5 mg/l, 24 hours at 37° C.; for MIC of Cefotaxime in combination with the compound: Trial 1, 011GO66 S. aureus PeniR; for MIC of Piperacillin in combination with the compound: Trial 1, 011GO66 peniR
Method in brief: as §1

[4] = test system: P. aeruginosa 391HT8 (PSE); assay: as above; format: cell-based; conditions: compound at 5 mg/l, 24 hours at 37° C.; for MIC of Cefotaxime in combination with the compound: Trial 12, 391HT8 P. aeruginosa PSE; for MIC of Piperacillin in combination with the compound: Trial 12, 391HT8 PSE
Method in brief: as §1

E. coli 250HT26 (SHV1) = assay: as above; format: cell-based; conditions: compound at 5 mg/l, 24 hours at 37° C.; for MIC of Cefotaxime in combination with the compound: Trial 6, 250HT26 E. coli SHV1; for MIC of Piperacillin in combination with the compound: Trial 6, 250HT26 SHV1
Method in brief: as §1

E. coli 250HT22 (Tem2) = assay: as above; format: cell-based; conditions: compound at 5 mg/l, 24 hours at 37° C.; for MIC of Cefotaxime in combination with the compound: Trial 3, 250HT22 E. coli Tem2; for MIC of Piperacillin in combination with the compound: Trial 3, 250HT22 Tem2
Method in brief: as §1

E. coli 250HT21 (Tem1) = assay: as above; format: cell-based; conditions: compound at 5 mg/l, 24 hours at 37° C.; for MIC of Cefotaxime in combination with the compound: Trial 2, 250HT21 E. coli Tem1; for MIC of Piperacillin in combination with the compound: Trial 2, 250HT21 Tem1
Method in brief: as §1

[5] = test system: P. aeruginosa 391HT7 (PSE); assay: as above; format: cell-based; conditions: compound at 5 mg/l, 24 hours at 37° C.; for MIC of Cefotaxime in combination with the compound: Trial 11, 391HT7 P. aeruginosa PSE; for MIC of Piperacillin in combination with the compound: Trial 11, 391HT7 PSE
Method in brief: as §1

β-lactamase P99 = molecular target: T1, β-lactamase P99 (Enterobacter cloacae, UniProt P05364); assay: biochemical; conditions: 100 μM Nitrocefin, 50 mM sodium phosphate buffer pH7.0, 37° C.; read-out: IC50 nM/P99
T1 construct: The β-lactamases are isolated from bacterial strains which are resistant to penicillins and cephalosporins; endogenous in cells; host or cells: Enterobacter cloacae 293HT6 (natural producer; French-press lysate, 100,000 g supernatant)
T1 sequence (P05364 21-381): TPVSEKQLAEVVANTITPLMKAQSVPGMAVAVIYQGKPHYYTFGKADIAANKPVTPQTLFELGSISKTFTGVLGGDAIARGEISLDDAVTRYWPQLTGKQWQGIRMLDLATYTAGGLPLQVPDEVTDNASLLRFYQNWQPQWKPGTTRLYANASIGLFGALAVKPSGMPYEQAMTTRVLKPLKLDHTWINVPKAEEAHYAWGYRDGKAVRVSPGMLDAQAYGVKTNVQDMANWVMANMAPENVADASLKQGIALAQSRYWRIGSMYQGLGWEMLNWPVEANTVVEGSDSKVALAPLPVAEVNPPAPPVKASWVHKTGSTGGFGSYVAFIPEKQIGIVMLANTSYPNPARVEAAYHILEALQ
Method in brief: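 P99 β-lactamase, taken from the soluble fraction of an Enterobacter cloacae 293HT6 lysate, was assayed at 37° C. in 50 mM sodium phosphate buffer pH7.0 with 100 μM Nitrocefin as the chromogenic substrate. Hydrolysis was followed kinetically at 485 nm at initial speed, with and without a 5 mn enzyme–inhibitor preincubation. Inhibitors were tested at 6 or 8 concentrations in duplicate, and IC50 was fitted with GraFit.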

β-lactamase TEM1 = molecular target: T2, β-lactamase TEM1 (Escherichia coli, UniProt P62593); assay: Inhibition of isolated β-lactamase Tem-1 (Nitrocefin hydrolysis); format: biochemical, E.coli 250HT21; conditions: 100 μM Nitrocefin, 50 mM sodium phosphate buffer pH7.0, 37° C.
T2 construct: The β-lactamases are isolated from bacterial strains which are resistant to penicillins and cephalosporins; endogenous in cells; host or cells: E. coli 250HT21 (natural producer; French-press lysate, 100,000 g supernatant)
T2 sequence (P62593 24-286 limits assumed): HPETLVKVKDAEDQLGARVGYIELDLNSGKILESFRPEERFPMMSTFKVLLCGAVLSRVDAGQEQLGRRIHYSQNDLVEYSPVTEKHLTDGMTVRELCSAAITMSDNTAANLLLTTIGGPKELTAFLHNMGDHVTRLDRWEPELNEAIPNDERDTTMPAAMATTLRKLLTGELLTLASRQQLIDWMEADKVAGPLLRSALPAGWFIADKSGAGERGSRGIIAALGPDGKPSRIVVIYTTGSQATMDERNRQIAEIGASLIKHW
Method in brief: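 TEM-1 from soluble extract of E. coli 250HT21, normalized enzyme, 100 μM Nitrocefin in 50 mM sodium phosphate pH 7.0 at 37 °C. Initial-rate hydrolysis read kinetically at 485 nm, with and without 5 min enzyme–inhibitor preincubation. CI50 from 6 or 8 concentrations in duplicate.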

E. coli 250CF1 (Tem3) = assay: microbe, parasite or virus in culture; format: cell-based; conditions: compound at 5 mg/l, 24 hours at 37° C.; for MIC of Cefotaxime in combination with the compound: Trial 4, 250CF1 E. coli Tem3; for MIC of Piperacillin in combination with the compound: Trial 4, 250CF1 Tem3
Method in brief: as §1

SMILES | MIC of Piperacillin in combination with the compound [1] [µg/mL] | MIC of Cefotaxime in combination with the compound [1] | MIC of Piperacillin in combination with the compound [2] [µg/mL] | MIC of Cefotaxime in combination with the compound [2] [µg/mL] | MIC of Cefotaxime in combination with the compound (Serratia 301HT6) | MIC of Piperacillin in combination with the compound (Serratia 301HT6) [µg/mL] | MIC of Cefotaxime in combination with the compound (E. coli 250SJ1 (Tem7)) | MIC of Piperacillin in combination with the compound (E. coli 250SJ1 (Tem7)) [µg/mL] | MIC of Cefotaxime in combination with the compound (E. coli 250BE1 (SHV4)) | MIC of Piperacillin in combination with the compound (E. coli 250BE1 (SHV4)) [µg/mL] | MIC of Cefotaxime in combination with the compound [3] [µg/mL] | MIC of Piperacillin in combination with the compound [3] [µg/mL] | MIC of Piperacillin in combination with the compound [4] [µg/mL] | MIC of Piperacillin in combination with the compound (E. coli 250HT26 (SHV1)) [µg/mL] | MIC of Piperacillin in combination with the compound (E. coli 250HT22 (Tem2)) [µg/mL] | MIC of Piperacillin in combination with the compound (E. coli 250HT21 (Tem1)) [µg/mL] | MIC of Piperacillin in combination with the compound [5] [µg/mL] | IC50 (β-lactamase P99) [nM] | IC50 (β-lactamase TEM1) [nM] | MIC of Piperacillin in combination with the compound (E. coli 250CF1 (Tem3)) [µg/mL] | further results
CN(C)c1ccc(NC(=O)[C@H]2CC[C@@H]3CN2C(=O)N3OS(=O)(=O)[O-])cc1.[Na+] (relative stereo) [Example 40, sodium salt of trans-N-[4-(dimethylamino)phenyl]-7-oxo-6-(sulphooxy)-1,6-diazabicyclo[3.2.1]octane-2-carboxamide] | 20 | <=0.04 μg/ml | >40 | >40 | 0.08 µg/mL | 1.2 | 0.15 µg/mL | >40 | 1.2 µg/mL | >40 | 2.5 | 0.6 | >40 | >40 | >40 | 10 | >40 | 96 | 51 | >40 | MIC of Cefotaxime in combination with the compound [4]: >40 µg/mL; MIC of Cefotaxime in combination with the compound (E. coli 250HT26 (SHV1)): <=0.04 μg/ml; MIC of Cefotaxime in combination with the compound (E. coli 250HT22 (Tem2)): <=0.04 μg/ml; MIC of Cefotaxime in combination with the compound (E. coli 250HT21 (Tem1)): <=0.04 μg/ml; MIC of Cefotaxime in combination with the compound [5]: >40 µg/mL; MIC of Cefotaxime in combination with the compound (E. coli 250CF1 (Tem3)): 0.6 µg/mL
CN(C)c1cccc(NC(=O)[C@H]2CC[C@@H]3CN2C(=O)N3OS(=O)(=O)[O-])c1.[Na+] (relative stereo) [Example 41, sodium salt of trans-N-[3-(dimethylamino)phenyl]-7-oxo-6-(sulphooxy)-1,6-diazabicyclo[3.2.1]octane-2-carboxamide] | 40 | 0.08 µg/mL | >40 | >40 | 0.08 µg/mL | 1.2 | 0.6 µg/mL | >40 | >40 µg/mL | >40 | 2.5 | 1.2 | >40 | >40 | >40 | 40 | >40 | 120 | 14 | >40 | MIC of Cefotaxime in combination with the compound [4]: >40 µg/mL; MIC of Cefotaxime in combination with the compound (E. coli 250HT26 (SHV1)): <=0.04 μg/ml; MIC of Cefotaxime in combination with the compound (E. coli 250HT22 (Tem2)): <=0.04 μg/ml; MIC of Cefotaxime in combination with the compound (E. coli 250HT21 (Tem1)): <=0.04 μg/ml; MIC of Cefotaxime in combination with the compound [5]: >40 µg/mL; MIC of Cefotaxime in combination with the compound (E. coli 250CF1 (Tem3)): 2.5 µg/mL
O=C(NCc1ccncc1)[C@H]1CC[C@@H]2CN1C(=O)N2OS(=O)(=O)[O-].[Na+] (relative stereo) [Example 42, sodium salt of trans-7-oxo-N-[(4-pyridinyl)methyl]-6-(sulphooxy)-1,6-diazabicyclo[3.2.1]octane-2-carboxamide] | 5 | <=0.04 μg/ml | 1.2 | 0.3 | <=0.04 μg/ml | 0.6 | <=0.04 μg/ml | 2.5 | <=0.04 μg/ml | 5 | 2.5 | 1.2 | >40 | 5 | 2.5 | 1.2 | >40 | 70 | 25 | 2.5 | MIC of Cefotaxime in combination with the compound [4]: 20 µg/mL; MIC of Cefotaxime in combination with the compound (E. coli 250HT26 (SHV1)): <=0.04 μg/ml; MIC of Cefotaxime in combination with the compound (E. coli 250HT22 (Tem2)): <=0.04 μg/ml; MIC of Cefotaxime in combination with the compound (E. coli 250HT21 (Tem1)): <=0.04 μg/ml; MIC of Cefotaxime in combination with the compound [5]: 20 µg/mL; MIC of Cefotaxime in combination with the compound (E. coli 250CF1 (Tem3)): <=0.04 μg/ml
NC(=O)Nc1cccc(NC(=O)[C@H]2CC[C@@H]3CN2C(=O)N3OS(=O)(=O)[O-])c1.[Na+] (relative stereo) [Example 46, sodium salt of trans-N-[3-[(aminocarbonyl)amino]phenyl]-7-oxo-6-(sulphooxy)-1,6-diazabicyclo[3.2.1]octane-2-carboxamide] | 10 | – | >40 | – | – | 1.2 | – | >40 | – | 40 | – | 0.6 | >40 | >40 | >40 | 5 | >40 | 70 | 26 | 2.5 | –

— US7612087B2, “Heterocyclic compounds as inhibitors of beta-lactamases” (Novexel, priority 2002, dated 2009)
